pIC50: −log10 of the molar value. Where a name gives a salt, the structure may show the parent alone. Read-outs that look alike come from different tables or passages of the source.
Tests used:
[1] = system: p-ERK in AGS cells; test: Inhibition of p-ERK in AGS cells (LANCE Ultra phospho-ERK1/2 kit); format: cell-based; details: Homo sapiens, AGS, 2 h, read-out: AGS_pERK IC50
Experimental: 1. Experimental objective: The inhibition activity of the example compounds on the phosphorylated ERK level in KRAS G12D mutant cells AGS was determined. 2. Experimental instruments: • 2.1 Instruments: Envison; Pipette (Eppendorf & Rainin) • 2.2 Reagents: AGS cells were purchased from COBIOER BIOSCIENCES CO., LTD, with a catalog number of CBP60476; Phosphorylated ERK1/2 (T202-Y204) LANCE Ultra Cellular Detection Kit was purchased from PerkinElmer, with a catalog number of TRF4000M; RPMI 1640 was purchased from Gibco, with a catalog number of 22400071; FBS was purchased from Gibco, with a catalog number of 10091148; PBS was purchased from Gibco, with a catalog number of 10010023; trypsin was purchased from Gibco, with a catalog number of 25200056; cell culture plates were purchased from Corning Company, with a catalog number of 3610; White opaque OptiPlate™-384 plates were purchased from PerkinElmer, with a catalog number of 6007290. 3. Experimental method: When AGS cells were cultured to appropriate confluence, the AGS cells were collected, and the cell density was adjusted to 4 × 10^5/mL using complete culture medium. The cell suspension was plated onto a 96-well plate at 100 µL per well, and the plate was placed in the incubator at 37°C and 5% CO2 for adherent culture overnight. Solutions of the compound with different concentrations were formulated using DMSO and complete culture medium, and a vehicle control was set up. The solutions of the compound were added to the 96-well plate at 25 µL per well, and the plate was placed in the incubator at 37°C and 5% CO2 for further culture for 2 h. Then, the supernatant of the cell culture plate was discarded, 50 µL of lysis buffer was added to each well, the cells were lysed at room temperature under shaking for 30 min, then placed in a centrifuge and centrifuged at 1000 rpm for 1 min. 15 µL of supernatant was transferred to a 384-well plate, 5 µL of detection mixture was added to each well (Eu-labeled anti-ERK1/2 (T202-Y204) Antibody at a final detection concentration of 0.5 nM and ULight labeled anti-ERK1/2 Antibody at a final detection concentration of 5 nM), centrifuged at 1000 rpm for 1 min, mixed evenly, and reacted at room temperature overnight. The plate was read using Envison and the signal values at the emission wavelengths of 620 nm and 665 nm were detected using a time-resolved fluorescence program. 4. […] Graphpad Prism software was used to fit the concentration and inhibition rate to a nonlinear regression curve, so as to obtain the IC50 value. Table 5: Inhibition activity of the compounds on p-ERK in AGS cells

[2] = Pharmacokinetic determination in rats (IV and PO, plasma, LCMS/MS); format: in vivo, SD rats; details: male SD rats; for AUC(0-inf): read-out: AUCo-∞; for half-life: read-out: T1/2 (converted); for F: PO 30 mg/kg vs IV 1 mg/kg; for clearance: read-out: CL
How it was run: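 Male SD rats (3/group), fasted overnight, dosed PO at 30 mg/kg in 10% Captisol/50 mM citrate pH 5.0 or IV at 1 mg/kg in 5% DMSO/10% Solutol HS15/85% PBS. Jugular plasma (EDTA-2K) sampled predose to 24 h; analysed by LCMS/MS.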

[3] = system: GP2D; test: Inhibition of proliferation of KRAS G12D mutant tumor cell line GP2D (CellTiter-Glo); details: read-out: GP2D IC50
Experimental: Experimental method: When SNU-1, HPAF-II, Panc0403, AsPC-1 or GP2D cells were cultured to the appropriate confluence, and the SNU-1, HPAF-II, Panc0403, AsPC-1 or GP2D cells were collected. The cells were adjusted to the appropriate cell density using complete culture medium, the cell suspension was plated onto a 96-well plate at 90 µL per well, and the plate was placed in the incubator at 37°C and 5% CO2 for adherent culture overnight. Solutions of the compound with different concentrations were formulated using DMSO and culture medium. A vehicle control was set up. […] Then, CellTiter-Glo solution was added, and the obtained mixture was shaken and mixed evenly, incubated in the dark for 10 min, and read with a BioTek Synergy H1 microplate reader. […] Experimental data processing method: The luminescence signal value was used to calculate the inhibition rate. Graphpad Prism software was used to fit the concentration and inhibition rate to a nonlinear regression curve, so as to obtain the IC50 value.

[4] = Plasma stability test, rat plasma
Text: The purpose of this experiment was to detect the stability of the example compounds in plasma of mouse, rat, dog and human.
Liquid chromatography-mass spectrometer, centrifuge, vortexer, pipette, continuous dispenser, 96-well plate, 50% methanol aqueous solution, acetonitrile solution containing internal standard, blank matrix (plasma of rat, dog, or human), Propantheline (propantheline bromide), Mevinolin (lovastatin), and test compound.
After whole blood was collected from animals or humans, it was placed in a test tube containing an anticoagulant and centrifuged at 3500 rpm for 10 min to collect the upper pale yellow plasma.
The compound was weighed and the stock solution was formulated with DMSO and the working solution was formulated with 100 mM phosphate buffer.
2.36 mg of propantheline bromide was weighed and diluted with 1 mL of DMSO into a 10 mM stock solution; 10 µL of 10 mM stock solution was pipetted into 1 mL of 100 mM phosphate buffer to achieve a final concentration of 100 µM.
4.05 mg of lovastatin was weighed and diluted with 1 mL of DMSO into a 10 mM stock solution; 10 µL of 10 mM stock solution was pipetted into 1 mL of 100 mM phosphate buffer to achieve a final concentration of 100 µM.
• 1) In a 96-well plate, 285 µL of plasma and 15 µL of 10 µM compound (test compound) were added in sequence and incubated at 37°C. • 2) 40 µL was taken at 0, 15, 30, 60, 90, and 120 min (the sampling point can be fine-tuned) and 160 µL of acetonitrile stop solution containing internal standard was add. • 3) After centrifugation (3500 rpm, 10 min), 50 µL of supernatant was taken, and 50 µL of DDH2O added for dilution and then the obtained mixture was injected into LC-MS/MS.
• Instruments: Shimadzu LC-20 AD • Chromatographic column: Phenomenex Gemiu ® C18 (50*4.6 mm, 5 µm particle size); • mobile phase: A: Acetonitrile, B: 0.1% formic acid solution 0-8 min: 5% A→95% A, 2.0-2.1 min: 90%A→5% A; Flow rate: 0.8 mL/min; Run time: 5.0 min; Injection volume: 5 µL.
• Instrument: API4000 liquid chromatography-mass spectrometer, AB Company, USA; • the ion source was electrospray ionization source (ESI); • drying gas (N2) temperature was 500°C; • electrospray voltage was 5500V; • the detection method was positive ion detection; • the scanning method was selected reaction monitoring (MRM); • the scanning time was 0.1s.

[5] = rat, in vivo, PO, 30 mg/kg, overnight fasting, plasma
[6] = rat, in vivo, PO, 30 mg/kg, overnight fasting, plasma, read-out: Cmax
[7] = rat, in vivo, PO, 30 mg/kg, overnight fasting, plasma, read-out: Tmax
[8] = rat, in vivo, IV, 1 mg/kg, overnight fasting, plasma
[9] = rat, in vivo, IV, 1 mg/kg, overnight fasting, plasma, read-out: C0
[10] = IV, 1 mg/kg, overnight fasting, plasma
[11] = PO, 30 mg/kg, overnight fasting, plasma

| Compound | pIC50 [1] | AUC(0-inf) [2, 5] [ng·h/mL] | Cmax [2, 6] [ng/mL] | half-life [2, 5] [h] | Tmax [2, 7] [h] | pIC50 ([3]; Homo sapiens, GP2d, 72 h) | F [2] [%] | AUC(0-inf) [2, 8] [ng·h/mL] | C0 [2, 9] [ng/mL] | clearance [2, 8] [mL/min/kg] | half-life [2, 8] [h] | also measured |
| --- | --- | --- | --- | --- | --- | --- | --- | --- | --- | --- | --- | --- |
| CON=C1CCN(CC2(COc3nc4c5c(nc(-c6cc(N)cc(Cl)c6C(F)(F)F)c(F)c5n3)O[C@@H](C)[C@@H]3[C@@H]5CC[C@H](CN43)N5)CC2)CC1 [Example 337, 1-((1-((((5S,5aS,6S,9R)-2-(5-amino-3-chloro-2-(trifluoromethyl)phenyl)-1-fluoro-5-methyl-5a,6,7,8,9,10-hexahydro-5H-4-oxa-3,10a,11,13,14-pentaaza-6,9-methylnaphtho[1,8-ab]heptene-12-yl)oxy)methyl)cyclopropyl)methyl)piperidin-4-one O-methyloxime] | 8.34 | 374 | 41 | 4.2 | 4 | 9.96 | – | – | – | – | – | – |
| C#Cc1c(F)ccc2cc(O)cc(-c3nc4c5c(nc(OCC6(CN7CCC(=NOC)CC7)CC6)nc5c3F)N3C[C@H]5CC[C@H](N5)[C@H]3[C@H](C)O4)c12 [Example 35-1, 1-((1-((((5S,5aS,6S,9R)-2-(8-ethynyl-7-fluoro-3-hydroxynaphthalen-1-yl)-1-fluoro-5-methyl-5a,6,7,8,9,10-hexahydro-5H-4-oxa-3,10a,11,13,14-pentaaza-6,9-methylenenaphtho[1,8-ab]heptalen-12-yl)oxo)methyl)cyclopropyl)methyl)piperidin-4-one O-methyloxime formate] | 8.57 | 601 | 108 | 3.4 | 2 | 9.68 | 3.5 | 571 | 2810 | 29.2 | 5.7 | – |
| [2H]C([2H])([2H])[C@@H]1Oc2nc(-c3cc(N)cc(Cl)c3C(F)(F)F)c(F)c3nc(OCC4(CN5CCC(=NOC)CC5)CC4)nc(c23)N2C[C@H]3CC[C@H](N3)[C@@H]12 [Example 339] | 8.36 | 220 | 43 | 3 | 2 | 10.00 | 6.6 | 98 | 174 | 170 | 2.6 | – |
| [2H]C([2H])(Oc1nc2c3c(nc(-c4cc(O)cc5ccc(F)c(C#C)c45)c(F)c3n1)O[C@@H](C)[C@@H]1[C@@H]3CC[C@H](CN21)N3)C1(C([2H])([2H])N2CCC(=CF)CC2)CC1 [Example 291, 5-ethynyl-6-fluoro-4-((5S,5aS,6S,9R)-1-fluoro-12-((1-((4-(fluoromethylene)piperidin-1-yl)methyl-d2)cyclopropyl)methoxy-d2)-5-methyl-5a,6,7,8,9,10-hexahydro-5H-4-oxa-3,10a,11,13,14-pentaaza-6,9-methylnaphtho[1,8-ab]hept-2-yl)naphthalen-2-ol] | 8.64 | – | – | – | – | 9.82 | – | – | – | – | – | Remaining rate (%) 0 min ([4]; Rat plasma, 37°C, 0 min): 100.00%; Remaining rate (%) 15 min ([4]; Rat plasma, 37°C, 15 min): 99.67%; Remaining rate (%) 30 min ([4]; Rat plasma, 37°C, 30 min): 102.83%; Remaining rate (%) 60 min ([4]; Rat plasma, 37°C, 60 min): 103.48%; Remaining rate (%) 120 min ([4]; Rat plasma, 37°C, 120 min): 98.20%; half-life ([4]; rat, plasma): 38.3 h |
| 4-((5S,5aS,6R,9S)-12-((1-((((R)-4-(difluoromethylene)-2-methylpiperidin-1-yl)methyl)cyclopropyl)methoxy)-1-fluoro-5-(methyl-d3)-5a,6,7,8,9,10-hexahydro-5H-4-oxa-3,10a,11,13,14-pentaaza-6,9-methylnaphtho[1,8-ab]hept-2-yl)-5-ethynyl-6-fluoronaphthalen-2-ol [Example 162] | – | – | – | – | – | – | 10.3 | – | – | – | – | AUCo-∞ [2, 10]: 514 ng·h/mL; C0 [2, 10]: 438 ng/mL; CL [2, 10]: 32.4 mL/min/kg; T1/2 [2, 10]: 10.8 h; AUCo-∞ [2, 11]: 1591 ng·h/mL; Cmax [2, 11]: 89 ng/mL; T1/2 [2, 11]: 10.5 h; Tmax [2, 11]: 4.0 h; pIC50 ([3]; proliferation, about 72 h, CellTiter-Glo): 9.70 |
